Measurements from paper PMC9416004, “A Versatile Class of 1,4,4-Trisubstituted Piperidines Block Coronavirus Replication In Vitro” (Pharmaceuticals, 2022).
Like-named read-outs stand apart in the source and are kept apart here.

Assays:
[1] = system: human embryonic lung (HEL) fibroblast cells; conditions: mock-infected HEL cells; microscopically visible alterations in cell morphology
HCoV-229E = assay: Cytopathic effect (CPE) reduction assay with HCoV-229E in HEL cells; type: cell-based, human coronavirus 229E; conditions: for EC50: Human coronavirus 229E, 120 h, HCoV-229E-infected HEL cells, five days at 35 °C; for Selectivity Index MTS: ratio of CC50 to EC50-MTS; for Selectivity Index MTS / Selectivity Index Microscopy: only values of 10 or higher shown; for Selectivity Index Microscopy: ratio of MCC to EC50-microscopy
in vitro = conditions: human
[2] = protection against virus-induced CPE by MTS cell viability assay, read-out: Antiviral EC50 MTS
[3] = protection against virus-induced CPE by microscopic scoring, read-out: Antiviral EC50 Microscopy

| Compound | Cytotoxicity MCC (minimal cytotoxic concentration) [1] | EC50 (HCoV-229E; [2]) | EC50 (HCoV-229E; [3]) | Selectivity Index MTS (HCoV-229E) | Selectivity Index Microscopy (HCoV-229E) | CC50 (in vitro) |
| --- | --- | --- | --- | --- | --- | --- |
| COC(=O)C[C@H](NC(=O)OC(C)(C)C)C(=O)N(Cc1ccc(F)cc1)C1(C(=O)NCc2ccccc2)CCN(Cc2ccccc2)CC1 [Compound 2] | 100 µM | 7.4 ± 2.5 µM | 7.8 ± 2.7 µM | 6 | 13 | 44 ± 8 µM |
| COC(=O)C[C@H](NC(=O)OC(C)(C)C)C(=O)N(Cc1ccc(F)cc1)C(C)(C)C(=O)NCc1ccccc1 [Compound 3] | >100 µM | > 100 µM | > 100 µM | – | – | > 100 µM |
| COC(=O)C[C@H](NC(=O)OC(C)(C)C)C(=O)N(Cc1ccc(F)cc1)C1(C(=O)NCc2ccccc2)CCNCC1 [Compound 4] | 100 µM | 78 ± 14 µM | 50 ± 18 µM | – | – | 66 ± 7 µM |
| COC(=O)C[C@H](NC(=O)OC(C)(C)C)C(=O)N(Cc1ccc(F)cc1)C1(C(=O)NCc2ccccc2)CCN(C)CC1 [Compound 5] | >100 µM | 22 ± 7 µM | 22 ± 9 µM | – | – | 92 ± 4 µM |
| COC(=O)C[C@H](NC(=O)OC(C)(C)C)C(=O)N(Cc1ccc(F)cc1)C1(C(=O)NCc2ccccc2)CCN(C2CCCCC2)CC1 [Compound 6] | 100 µM | 14 ± 1 µM | 22 ± 9 µM | – | – | 85 ± 9 µM |
| COC(=O)C[C@H](NC(=O)OC(C)(C)C)C(=O)N(Cc1ccc(F)cc1)C1(C(=O)NCc2ccccc2)CCN(c2ccccc2)CC1 [Compound 7] | >100 µM | > 100 µM | 43 ± 3 µM | – | – | > 100 µM |
| COC(=O)C[C@H](NC(=O)OC(C)(C)C)C(=O)N(Cc1ccc(F)cc1)C1(C(=O)NCc2ccccc2)CC[N+](C)(Cc2ccccc2)CC1 (stereo partly drawn) [Compound 8] | >100 µM | > 100 µM | > 100 µM | – | – | > 100 µM |
| COC(=O)C[C@H](NC(=O)OC(C)(C)C)C(=O)N(Cc1ccc(F)cc1)C1(C(=O)NCc2ccccc2)CCN(Cc2cccc(F)c2)CC1 [Compound 9] | >100 µM | > 100 µM | > 100 µM | – | – | > 100 µM |
| COC(=O)C[C@H](NC(=O)OC(C)(C)C)C(=O)N(Cc1ccc(F)cc1)C1(C(=O)NCc2ccccc2)CCN(Cc2cc(F)cc(F)c2)CC1 [Compound 10] | 70 µM | > 100 µM | 15 ± 1 µM | – | – | 10 ± 2 µM |
| COC(=O)C[C@H](NC(=O)OC(C)(C)C)C(=O)N(Cc1ccc(F)cc1)C1(C(=O)NCc2ccccc2)CCN(CCc2ccccc2)CC1 [Compound 11] | 100 µM | 4.4 ± 0.8 µM | 3.2 ± 0.1 µM | – | 31 | 38 ± 2 µM |
| COC(=O)C[C@H](NC(=O)OC(C)(C)C)C(=O)N(Cc1ccc(F)cc1)C1(C(=O)NC(C)(C)C)CCN(Cc2ccccc2)CC1 [Compound 12] | ≥100 µM | 11 µM | 11 µM | – | – | 77 µM |
| COC(=O)C[C@H](NC(=O)OC(C)(C)C)C(=O)N(Cc1ccc(F)cc1)C1(C(=O)NC2CCCCC2)CCN(Cc2ccccc2)CC1 [Compound 13] | >100 µM | > 100 µM | > 100 µM | – | – | > 100 µM |
| COC(=O)C[C@H](NC(=O)OC(C)(C)C)C(=O)N(Cc1ccc(F)cc1)C1(C(=O)NCS(=O)(=O)c2ccc(C)cc2)CCN(Cc2ccccc2)CC1 [Compound 14] | 100 µM | 30 ± 6 µM | 57 ± 18 µM | – | – | 78 ± 11 µM |
| COC(=O)C[C@H](NC(=O)OC(C)(C)C)C(=O)N(Cc1ccccc1)C1(C(=O)NC(C)(C)C)CCN(Cc2ccccc2)CC1 [Compound 15, Methyl(S)-4-(benzyl(1-benzyl-4-tert-butylcarbamoylpiperidin-4-yl)amino)-3-tert-butoxycarbonylamino-4-oxobutanoate] | >100 µM | 25 µM | 25 µM | – | – | 78 ± 7 µM |
| COC(=O)C[C@H](NC(=O)OC(C)(C)C)C(=O)N(Cc1ccccc1)C1(C(=O)NC2CCCCC2)CCN(Cc2ccccc2)CC1 [Compound 16, Methyl(S)-4-(benzyl(1-benzyl-4-cyclohexylcarbamoylpiperidin-4-yl)amino)-3-tert-butoxycarbonylamino-4-oxobutanoate] | ≥40 µM | 10 µM | 16 ± 3 µM | – | – | 42 ± 4 µM |
| COC(=O)CNC(=O)C1(N(Cc2ccccc2)C(=O)[C@H](CC(=O)OC)NC(=O)OC(C)(C)C)CCN(Cc2ccccc2)CC1 [Compound 17] | >100 µM | 75 ± 8 µM | 68 ± 3 µM | – | – | > 100 µM |
| COC(=O)C[C@H](NC(=O)OC(C)(C)C)C(=O)NC1(C(=O)NCc2ccccc2)CCN(Cc2ccccc2)CC1 [Compound 18] | ≥100 µM | > 100 µM | 55 ± 16 µM | – | – | 48 ± 8 µM |

| Compound | Cytotoxicity MCC (minimal cytotoxic concentration) [1] | EC50 (HCoV-229E; [2]) | EC50 (HCoV-229E; [3]) | Selectivity Index MTS (HCoV-229E) | Selectivity Index Microscopy (HCoV-229E) | CC50 (in vitro) |
| --- | --- | --- | --- | --- | --- | --- |
| COC(=O)C[C@H](NC(=O)OC(C)(C)C)C(=O)N(C)C1(C(=O)NCc2ccccc2)CCN(Cc2ccccc2)CC1 [Compound 19] | 100 µM | > 100 µM | 14 ± 1 µM | – | – | 18 ± 2 µM |
| CCC(C)N(C(=O)[C@H](CC(=O)OC)NC(=O)OC(C)(C)C)C1(C(=O)NCc2ccccc2)CCN(Cc2ccccc2)CC1 (stereo partly drawn) [Compound 20] | 100 µM | 13 ± 1 µM | 14 ± 1 µM | – | – | 31 ± 3 µM |
| COC(=O)C[C@H](NC(=O)OC(C)(C)C)C(=O)N(C1CC1)C1(C(=O)NCc2ccccc2)CCN(Cc2ccccc2)CC1 [Compound 21] | 50 µM | > 100 µM | 12 ± 0.4 µM | – | – | 14 ± 3 µM |
| COC(=O)C[C@H](NC(=O)OC(C)(C)C)C(=O)N(Cc1ccc(C)cc1)C1(C(=O)NCc2ccccc2)CCN(Cc2ccccc2)CC1 [Compound 22] | 75 µM | 4.3 ± 0.6 µM | 3.1 µM | – | 24 | 31 ± 10 µM |
| COC(=O)C[C@H](NC(=O)OC(C)(C)C)C(=O)N(Cc1ccc([N+](=O)[O-])cc1)C1(C(=O)NCc2ccccc2)CCN(Cc2ccccc2)CC1 [Compound 23] | 75 µM | 4 ± 0.6 µM | 3.1 µM | 12 | 24 | 49 ± 6 µM |
| COC(=O)C[C@H](NC(=O)OC(C)(C)C)C(=O)N(Cc1ccc(C(F)(F)F)cc1)C1(C(=O)NCc2ccccc2)CCN(Cc2ccccc2)CC1 [Compound 24] | 25 µM | 4.2 ± 1 µM | 3.1 µM | – | – | 11 ± 1 µM |
| COC(=O)C[C@H](NC(=O)OC(C)(C)C)C(=O)N(Cc1ccc(Cl)cc1)C1(C(=O)NCc2ccccc2)CCN(Cc2ccccc2)CC1 [Compound 25] | 50 µM | 3.2 ± 0.2 µM | 3.1 µM | – | – | 12 µM |
| COC(=O)C[C@H](NC(=O)OC(C)(C)C)C(=O)N(Cc1ccccc1F)C1(C(=O)NCc2ccccc2)CCN(Cc2ccccc2)CC1 [Compound 26] | 100 µM | 15 ± 2 µM | 12 ± 1 µM | – | – | 44 ± 1 µM |
| COC(=O)C[C@H](NC(=O)OC(C)(C)C)C(=O)N(Cc1cccc(F)c1)C1(C(=O)NCc2ccccc2)CCN(Cc2ccccc2)CC1 [Compound 27] | 100 µM | 14 ± 1 µM | 10 ± 3 µM | – | 10 | 46 ± 4 µM |
| COC(=O)C[C@H](NC(=O)OC(C)(C)C)C(=O)N(Cc1ccc(F)c(F)c1)C1(C(=O)NCc2ccccc2)CCN(Cc2ccccc2)CC1 [Compound 28] | 44 µM | 3.7 ± 1 µM | 6 ± 2.6 µM | – | – | 23 ± 11 µM |
| COC(=O)C[C@H](NC(=O)OC(C)(C)C)C(=O)N(CCNc1ccccc1)C1(C(=O)NCc2ccccc2)CCN(Cc2ccccc2)CC1 [Compound 29] | 75 µM | 3.2 ± 0.4 µM | 3 ± 0.1 µM | 11 | 25 | 36 ± 9 µM |
| COC(=O)CCC(=O)N(Cc1ccc(F)cc1)C1(C(=O)NCc2ccccc2)CCN(Cc2ccccc2)CC1 [Compound 30] | 100 µM | 13 ± 2 µM | 13 µM | – | – | 64 ± 3 µM |
| COC(=O)C[C@H](N)C(=O)N(Cc1ccc(F)cc1)C1(C(=O)NCc2ccccc2)CCN(Cc2ccccc2)CC1 [Compound 31] | 11 µM | 2.8 ± 0.5 µM | 3.3 ± 0.2 µM | – | – | 4.9 ± 1.5 µM |
| COC(=O)C[C@H](N)C(=O)N(Cc1ccccc1)C1(C(=O)NCc2ccccc2)CCN(Cc2ccccc2)CC1 [Compound 32] | >100 µM | 62 ± 7 µM | 55 ± 3 µM | – | – | > 100 µM |
| COC(=O)C[C@H](NC(=O)OCC1c2ccccc2-c2ccccc21)C(=O)N(Cc1ccccc1)C1(C(=O)NCc2ccccc2)CCN(Cc2ccccc2)CC1 [Compound 35] | >100 µM | 26 ± 9 µM | 36 ± 14 µM | – | – | > 100 µM |
| CCC(C)N(C(=O)[C@H](CC(=O)OC)NC(=O)OCc1ccccc1)C1(C(=O)NCc2ccccc2)CCN(Cc2ccccc2)CC1 (stereo partly drawn) [Compound 36] | 40 µM | 6.2 ± 0.8 µM | 9.2 ± 0.5 µM | – | – | 27 ± 1 µM |
